We go through seven molecules from patent publication US8715751B2, “Artemisinins in the clinical and veterinary management of kinetoplastid infections” (The United States of America as Represented by the …, priority 2006, dated 2014).

“And” between values parts separate entries of the source, which are not always exact repeats. Equal entries are not always repeated. Where two headings read alike, the source gives them in different places.

Data set [1] concerns Leishmania major ATCC 50122 amastigotes. Nature of the data set: In vitro amastigote/macrophage culture drug screening. As to conditions: added once. The format is cell-based.
Data set [2] shares this test system. The data set is described as above. Type of data set: cell-based. The following applies: for effectiveness ranking of the compounds in the screen: 2.0 μM initial screen. The method, then: Preliminary drug screening (in vitro amastigote/macrophage culture) of artemisinin and artelinic acid compounds.
The four compounds were dissolved in the respective solvents as indicated in the table below (Table 1) and were tested against Leishmania major ATCC 50122 amastigotes in vitro in a mouse macrophage system. A positive (Pentostam) and negative (culture medium) controls were set for each plate. Compounds were tested at 2.0 μM in a total volume of 2-0 mls. Drug was added to well every 4 hours×1, 2 and 3, and results shown in (Table 2) below.
Because of the high potency of Artelinic acid relative to the other compounds, the experiments were repeated with different doses of Artelinic acid alone.

A further data set relates to Leishmania major lesions. The data set is described as follows: In vivo testing in BALB/c mice, Leishmania footpad lesion. As to conditions: for Lesion Size (mm) Post-Rx: daily for one week, 9 days after commencement; for Lesion Size (mm) Pre-Rx: prior to dosing. Here is the method:
One foot pad was infected with infective Leishmania promastigotes while the other foot served as control. After the infected foot pads had developed lesions, mice with similar size lesions were selected and treated daily with test article for one week. The first doses were administered on 18 May. Lesions were measured with calipers prior to dosing and 9 days after commencement of treatment (27 May) and the difference in lesion size calculated. The thickness of the uninfected footpad was also measured. […] Test articles were administered orally and intra-peritoneally (ip).

The conditions of data set [3]: cited from earlier work.
In data set [4] the test system is Trypanosoma brucei brucei. The data set is described as follows: In vitro trypanocidal assay (microscopic viability, bloodstream forms). Type of data set: cell-based. As to conditions: 1 μg/mL, 24-hr incubation, read-out: growth inhibition against T. b. brucei. The method, then:
Culture suspension of Trypanosoma brucei brucei (T. b. brucei) was obtained from Research Institute for Microbial Diseases (Osaka University, Japan). Trypanosomes were subcultured in appropriate medium (see 5.1.2) as frequently as needed to avoid overgrowth, and maintained in culture flasks at 37° C. in a humidified, 5% CO2 atmosphere incubator. In addition, parasite culture stabilates were prepared by suspending trypanosomes centrifugation (1500 rpm, room temperature, 3 min) pellet in 1 mL of a mixture of […] (v/v) trypanosome dilution buffer and 33% (v/v) glycerol. The whole volume was transferred into cryotubes and stored at −80° C. until further needed. […]
All fractions obtained stepwise in the course of the separation process of the plant crude extracts were assessed for their in vitro activity against T. b. brucei. […] Trypanosomes were harvested at late exponential growth level, counted with a hemocytometer (Erma Tokyo 7059), and resuspended by appropriate dilution in culture medium for achieving a final density of 1×10^4 cells/mL. […] After successively 24, 48, and 72 hr-incubations, parasites viability was determined by observing directly inside the wells of the microculture plate with an optical microscope (Injectoscope model IMT-YF/Olympus). […]

A further data set relates to HeLa S3 cells. Nature of the data set: Cytotoxicity assay in vitro (MTT). The format is cell-based, human. The following applies: 1 μg/mL. Here is the method: An axenic culture of human carcinoma HeLa S3 cell line was established in Dulbecco's Modified Eagle's Medium (D-MEM, Sigma) supplemented with 4500 mg glucose/L, L-glutamine, NaHCO3, and pyridoxine HCl, to which 10% heat-inactivated (56° C., 40 min) fetal bovine serum (FBS, MultiSer) was added. Plant chromatographic fractions, which have shown potent trypanocidal activity in vitro, were selected for cytotoxicity assay. Previously dissolved in neat DMSO (Wako-for biochemical assay), an aliquot of 10 μL of each test sample was diluted in 490 μL of the cell culture medium with the intent of decreasing the DMSO concentration to 2% in the medium. HeLa S3 cells maintained in culture dish (Sumilon) were washed with Dulbecco's phosphate saline buffer (-) [DPBS (-), Nissui Pharmaceutical Co., Ltd] after syphonating the culture medium. Adherent cells were released from their dish bottom substrate by adding trypsin (Nacalai) and gently tapping with hand on the round lateral side of the dish. […] After shaking ([…]) for 3-5 min, the absorbance in each well was measured at 540 nm in a microtiter plate reader (ImmunoMini NJ-2300). The percentage of cytotoxicity (growth inhibition level) was calculated as (A-B)/A×100, where A is the mean optical density of negative control wells and B is the mean optical density of test sample wells.

On to `C[C@H]1[C@@H](OCc2ccc(C(=O)O)cc2)O[C@@H]2O[C@@]3(C)CC[C@H]4[C@H](C)CC[C@@H]1[C@@]24OO3` [Artelinic acid, artelinic acid], for which the “observation on Leishmania amastigotes” value is listed as “Cleared all the Leishmania amastigotes” in data set [1] (0.25 μM); “Cleared all the parasites in the cytoplasm” in data set [1] (0.5 μM); “All the amastigotes were cleared from the macrophages” in data set [1] (1.0 μM); “All the leishmania amastigotes were cleared” in data set [2] (2.0 μM, added once). Also, the “killing of / potency against Leishmania parasites within mouse macrophages in vitro” value in data set [2] is “marked potency”. In addition, the “effectiveness ranking of the compounds in the screen” value (“effectiveness ranking” for short) in data set [2] is listed as “Artelinic acid>>>Dihydroartemisinin>Beta Arteether>>Artemisinin”. Further, the “clearance of amastigotes in macrophages” value in data set [2] (2 uM, initial screen) is “cleared all of the amastigates in macrophages”. Further, the “lowest concentration at which killing of intracellular amastigotes was noted” value in data set [2] (dose response, added once) worked out at 0.1 µM. In addition, the “lowest dose at which clearance was complete” value in data set [2] (dose response, added once) was 0.25 µM. The “Lesion Size (mm) Post-Rx” value in the data set with Leishmania major lesions (4 ul/Kg, IP) was 2.1 mm and 2.2 mm and 2.0 mm. The “Lesion Size (mm) Pre-Rx” value was 2.6 mm and 2.5 mm in the data set on Leishmania major lesions (4 ul/Kg, IP); 2.7 mm and 2.8 mm in the data set with Leishmania major lesions (4 ul/Kg, Oral). In the data set with Leishmania major lesions (at the doses and route of administration tested), the “effectiveness compared with Pentostam, the positive control” value is given as “much more effective than Pentostam”. The “effect on size of Leishmania major footpad lesions” value in the data set with Leishmania major lesions (given orally or ip for one week) is given as “decrease in the size of Leishmania major lesions”.

Consider `CCO[C@H]1O[C@@H]2O[C@@]3(C)CC[C@H]4[C@H](C)CC[C@@H]([C@H]1C)[C@@]24OO3` [Beta Arteether, Beta-Arteether], for which the “effectiveness ranking” value in data set [2] is recorded as “Artelinic acid>>>Dihydroartemisinin>Beta Arteether>>Artemisinin”.

For `N=C(N)c1ccc(OCCCCCOc2ccc(C(=N)N)cc2)cc1` [Pentamidine], the oral bioavailability entry in data set [3] is given as “no oral bioavailability”.

Consider `O.O.O.O.O.O.O.O.O.O=C([O-])[C@@H]1[O][Sb](=[O])([O][Sb]2(=[O])[O][C@H]([C@H](O)CO)[C@H](O)[C@H](C(=O)[O-])[O]2)[O][C@H]([C@H](O)CO)[C@@H]1O.[Na+].[Na+].[Na+]` (stereo partly drawn) [Pentostam], for which, in the data set with Leishmania major lesions (20 mg/Kg, IP), the “Lesion Size (mm) Post-Rx” value was 2.3 mm and 3.0 mm and 2.7 mm; the “Lesion Size (mm) Pre-Rx” value is 2.8 mm and 2.6 mm. In addition, in the data set with Leishmania major lesions (20 mg/Kg, Oral), the “Lesion Size (mm) Post-Rx” value is 2.6 mm and 2.9 mm; the “Lesion Size (mm) Pre-Rx” value is 2.8 mm and 2.7 mm.

With `Nc1nc(N)nc(Nc2ccc([As]3SCC(CO)S3)cc2)n1` (stereo not drawn) [Melarsoprol], the oral bioavailability entry in data set [3] (po) is given as “no oral bioavailability”.

In the case of `Cc1ccc(C(=O)Nc2ccc(S(=O)(=O)O)c3cc(S(=O)(=O)O)cc(S(=O)(=O)O)c23)cc1NC(=O)c1cccc(NC(=O)Nc2cccc(C(=O)Nc3cc(C(=O)Nc4ccc(S(=O)(=O)O)c5cc(S(=O)(=O)O)cc(S(=O)(=O)O)c45)ccc3C)c2)c1` [Suramin], the oral bioavailability result in data set [3] is reported as “no oral bioavailability”.

Turning to `C[C@@H]1CC[C@H]2[C@@H](C)C(=O)O[C@@H]3O[C@@]4(C)CC[C@@H]1[C@]32OO4` [Artemisinin, (+)-artemisinin], in data set [4], the inhibition at 1 µg/mL is not below 80%. Also, the “cytotoxic level in vitro” value in the data set with HeLa S3 cells is 17.3%. Also, in data set [2], the “killing of / potency against Leishmania parasites within mouse macrophages in vitro” value is recorded as “results were duplicated” and the “effectiveness ranking” value is “Artelinic acid>>>Dihydroartemisinin>Beta Arteether>>Artemisinin”. Further, the parasites per macrophage entry in data set [2] (2.0 μM, compound added q4 h × 1) was “between 4-7”.
